Data reported in US11007200B2, “Cycloalkyl-diamines for the treatment of pain” (MediSynergics, LLC, priority 2019, dated 2021).
Counter-ions that a name gives are not always drawn.

How the values were obtained:
Sigma-1 = Sigma-1 Ki determination (NIMH-PDSP); assay type: binding; conditions: standard drug haloperidol
Description: (§1) The compounds from the above Examples were tested for Sigma-1 and Sigma-2 activity. Ki determinations were generously provided by the National Institute of Mental Health's Psychoactive Drug Screening Program (PDSP), Contract #HHSN-272-2013-000017-C(NIMH-PDSP). The NIMH-PDSP is directed by Bryan L Roth MD, PhD at the University of North Carolina at Chapel Hill, N.C. and Project Officer Jamie Driscoll at NIMH, Bethesda, Md., USA. Procedures employed by the PDSP as described in the NIMH-PDSP Assay Protocol Book, Version II. The standard drug used in both Sigma subtype assays is haloperidol.

Sigma-2 = Sigma-2 Ki determination (NIMH-PDSP); assay type: binding; conditions: standard drug haloperidol
Description: as §1

Compound | Ki (Sigma-1) [nM] | Ki (Sigma-2) [nM]
CN[C@]1(c2ccccc2Cl)CCCC[C@@H]1NCCCN1CCCC1 (relative stereo) [Example 2a, Cis-(1S,2S)-1-(2-chlorophenyl)-N^1-methyl-N^2-[3-(pyrrolidin-1-yl)propyl]-cyclohexane-1,2-diamine trihydrochloride] | 17.3 | 59.8
CN[C@]1(c2ccccc2Cl)CCCC[C@H]1NCCCN1CCCC1 (relative stereo) [Example 2b, Trans-(1S,2R)-1-(2-chlorophenyl)-N^1-methyl-N^2-[3-(pyrrolidin-1-yl)propyl]-cyclohexane-1,2-diamine trihydrochloride] | 37.2 | 305
CN[C@]1(c2ccccc2Cl)CCCC[C@@H]1NCCCc1ccc(F)cc1 (relative stereo) [Example 3a, Cis-(1S,2S)-1-(2-chlorophenyl)-N^2-[3-(4-fluorophenyl)propyl]-N^1-methyl-cyclohexane-1,2-diamine dihydrochloride] | 35.4 | 18
CN[C@]1(c2ccccc2Cl)CCCC[C@H]1NCCCc1ccc(F)cc1 (relative stereo) [Example 3b, Trans-(1S,2R)-1-(2-chlorophenyl)-N^2-[3-(4-fluorophenyl)propyl]-N^1-methyl-cyclohexane-1,2-diamine dihydrochloride] | 217 | 675
CN[C@]1(c2ccccc2Cl)CCCC[C@@H]1NCCCc1ccccc1 (relative stereo) [Example 4a, Cis-(1S,2S)-1-(2-chlorophenyl)-N^1-methyl-N^2-(3-phenylpropyl)cyclohexane-1,2-diamine dihydrochloride] | 97.2 | 15.5
CN[C@]1(c2ccccc2Cl)CCCC[C@H]1NCCCc1ccccc1 (relative stereo) [Example 4b, Trans-(1S,2R)-1-(2-chlorophenyl)-N^1-methyl-N^2-(3-phenylpropyl)cyclohexane-1,2-diamine dihydrochloride] | 697 | 426
CN[C@]1(c2ccccc2Cl)CCCC[C@@H]1NCCCN1CCN(C)CC1 (relative stereo) [Example 13a, Cis-(1S,2S)-1-(2-chlorophenyl)-N^1-methyl-N^2-(3-(4-methylpiperazin-1-yl)propyl)cyclohexane-1,2-diamine tetrahydrochloride] | 70 | 98
CN[C@]1(c2ccccc2Cl)CCCC[C@H]1NCCCN1CCN(C)CC1 (relative stereo) [Example 13b, Trans-(1S,2R)-1-(2-chlorophenyl)-N^1-methyl-N^2-(3-(4-methylpiperazin-1-yl)propyl)cyclohexane-1,2-diamine tetrahydrochloride] | 146 | 435
